Data: PubChem BioAssay AID1259407 (Chemical Carcinogenesis Research Information System (CCRIS), 2018)
Calls of active or inactive are those of the source. How the calls were made is not given here.

Test system: CCRIS mutagenicity, Ames/micronucleus/aberration tests
Assay: CCRIS mutagenicity studies
[1] = Test System: AMES SALMONELLA TYPHIMURIUM, Strain/Indicator: TA98, Metabolic Activation: NONE, Method: STANDARD PLATE
[2] = Test System: AMES SALMONELLA TYPHIMURIUM, Strain/Indicator: TA98, Metabolic Activation: RAT, LIVER, S-9, AROCLOR 1254, Method: STANDARD PLATE
[3] = Test System: AMES SALMONELLA TYPHIMURIUM, Strain/Indicator: TA100, Metabolic Activation: NONE, Method: STANDARD PLATE
[4] = Test System: AMES SALMONELLA TYPHIMURIUM, Strain/Indicator: TA100, Metabolic Activation: RAT, LIVER, S-9, AROCLOR 1254, Method: STANDARD PLATE
[5] = Test System: AMES SALMONELLA TYPHIMURIUM, Strain/Indicator: TA1535, Metabolic Activation: NONE, Method: STANDARD PLATE
[6] = Test System: AMES SALMONELLA TYPHIMURIUM, Strain/Indicator: TA1535, Metabolic Activation: RAT, LIVER, S-9, AROCLOR 1254, Method: STANDARD PLATE
[7] = Test System: AMES SALMONELLA TYPHIMURIUM, Strain/Indicator: TA1537, Metabolic Activation: NONE, Method: STANDARD PLATE
[8] = Test System: AMES SALMONELLA TYPHIMURIUM, Strain/Indicator: TA1537, Metabolic Activation: RAT, LIVER, S-9, AROCLOR 1254, Method: STANDARD PLATE

Structure (SMILES): O=C(OCc1ccccc1)c1cccc2cccnc12
- mutagenic call [1]: inactive; negative
- mutagenic call [2]: inactive; negative
- mutagenic call [3]: inactive; negative
- mutagenic call [4]: inactive; negative
- mutagenic call [5]: inactive; negative
- mutagenic call [6]: inactive; negative
- mutagenic call [7]: inactive; negative
- mutagenic call [8]: inactive; negative

Structure (SMILES): Nc1ccc2c(O)cc(S(=O)(=O)O)cc2c1
- mutagenic call (End Point: IN VITRO CHROMOSOMAL ABERRATIONS, Test System: CHL CELLS, Metabolic Activation: NONE): inactive; negative
- mutagenic call (End Point: IN VITRO CHROMOSOMAL ABERRATIONS, Test System: CHL CELLS, Metabolic Activation: RAT, LIVER, S-9, SODIUM PHENOBARBITAL AND 5,6-BENZOFLAVONE): active; positive

Structure (SMILES): CCC(=O)N=c1sn(C(=O)CC)c2ccc([N+](=O)[O-])cc12
- mutagenic call (Test System: AMES SALMONELLA TYPHIMURIUM, Strain/Indicator: TA100, Metabolic Activation: S-9, Method: STANDARD PLATE): active; positive

Structure (SMILES): O=c1oc2ccc([N+](=O)[O-])cc2c2ccccc12
- mutagenic call (Test System: AMES SALMONELLA TYPHIMURIUM, Strain/Indicator: TA98(1,8-DNP6), Metabolic Activation: NONE, Method: MICROSUSPENSION): active; positive
- mutagenic call (Test System: AMES SALMONELLA TYPHIMURIUM, Strain/Indicator: TA98(1,8-DNP6), Metabolic Activation: NONE, Method: PREINCUBATION): active; positive
- mutagenic call (Test System: AMES SALMONELLA TYPHIMURIUM, Strain/Indicator: TA98(1,8-DNP6), Metabolic Activation: NONE, Method: STANDARD PLATE): active; positive
- mutagenic call (Test System: AMES SALMONELLA TYPHIMURIUM, Strain/Indicator: TA98(NR), Metabolic Activation: NONE, Method: MICROSUSPENSION): active; positive
- mutagenic call (Test System: AMES SALMONELLA TYPHIMURIUM, Strain/Indicator: TA98(NR), Metabolic Activation: NONE, Method: PREINCUBATION): inactive; negative
- mutagenic call (Test System: AMES SALMONELLA TYPHIMURIUM, Strain/Indicator: TA98(NR), Metabolic Activation: NONE, Method: STANDARD PLATE): active; positive
- mutagenic call (Test System: AMES SALMONELLA TYPHIMURIUM, Strain/Indicator: TA98(NR), Metabolic Activation: RAT LIVER S-9 (15%), Method: PREINCUBATION): active; positive
- mutagenic call (Test System: AMES SALMONELLA TYPHIMURIUM, Strain/Indicator: TA98(NR), Metabolic Activation: RAT LIVER S-9, 3-METHYLCHOLANTHRENE (15%), Method: PREINCUBATION): active; positive
- mutagenic call (Test System: AMES SALMONELLA TYPHIMURIUM, Strain/Indicator: TA98(NR), Metabolic Activation: RAT LIVER S-9, BETA-NAPHTHAFLAVONE (15%), Method: PREINCUBATION): active; positive
- mutagenic call (Test System: AMES SALMONELLA TYPHIMURIUM, Strain/Indicator: TA98(NR), Metabolic Activation: RAT LIVER S-9, PCB (10%), Method: PREINCUBATION): active; positive
- mutagenic call (Test System: AMES SALMONELLA TYPHIMURIUM, Strain/Indicator: TA98(NR), Metabolic Activation: RAT LIVER S-9, PHENOBARBITAL (15%), Method: PREINCUBATION): active; positive
- mutagenic call (Test System: AMES SALMONELLA TYPHIMURIUM, Strain/Indicator: TA98(NR), Metabolic Activation: RAT, LIVER, S-9, AROCLOR 1254, Method: STANDARD PLATE): active; positive
- mutagenic call (Test System: AMES SALMONELLA TYPHIMURIUM, Strain/Indicator: TA98, Metabolic Activation: NONE, Method: MICROSUSPENSION): active; positive
- mutagenic call (Test System: AMES SALMONELLA TYPHIMURIUM, Strain/Indicator: TA98, Metabolic Activation: NONE, Method: PREINCUBATION): active; positive
- mutagenic call [1]: active; positive
- mutagenic call (Test System: AMES SALMONELLA TYPHIMURIUM, Strain/Indicator: TA98, Metabolic Activation: RAT, LIVER, S-9, AROCLOR 1254, Method: MICROSUSPENSION): active; positive
- mutagenic call [2]: active; positive
- mutagenic call (Test System: AMES SALMONELLA TYPHIMURIUM, Strain/Indicator: TA100, Metabolic Activation: NONE, Method: MICROSUSPENSION): active; positive
- mutagenic call (Test System: AMES SALMONELLA TYPHIMURIUM, Strain/Indicator: TA100, Metabolic Activation: NONE, Method: PREINCUBATION): active; positive
- mutagenic call [3]: active; positive
- mutagenic call (Test System: AMES SALMONELLA TYPHIMURIUM, Strain/Indicator: TA100, Metabolic Activation: RAT LIVER S-9, 3-METHYLCHOLANTHRENE (15%), Method: PREINCUBATION): active; positive
- mutagenic call (Test System: AMES SALMONELLA TYPHIMURIUM, Strain/Indicator: TA100, Metabolic Activation: RAT, LIVER, S-9, AROCLOR 1254, Method: MICROSUSPENSION): active; positive
- mutagenic call [4]: active; positive
- mutagenic call [5]: active; positive
- mutagenic call [6]: active; positive
- mutagenic call [7]: active; positive
- mutagenic call [8]: active; positive
- mutagenic call (Test System: AMES SALMONELLA TYPHIMURIUM, Strain/Indicator: TA1538, Metabolic Activation: NONE, Method: STANDARD PLATE): active; positive
- mutagenic call (Test System: AMES SALMONELLA TYPHIMURIUM, Strain/Indicator: TA1538, Metabolic Activation: RAT, LIVER, S-9, AROCLOR 1254, Method: STANDARD PLATE): active; positive
- mutagenic call (Test System: AMES SALMONELLA TYPHIMURIUM, Strain/Indicator: TA7001, Metabolic Activation: NONE, Method: PREINCUBATION): inactive; negative
- mutagenic call (Test System: AMES SALMONELLA TYPHIMURIUM, Strain/Indicator: TA7001, Metabolic Activation: RAT LIVER S-9, 3-METHYLCHOLANTHRENE (15%), Method: PREINCUBATION): inactive; negative
- mutagenic call (Test System: AMES SALMONELLA TYPHIMURIUM, Strain/Indicator: TA7002, Metabolic Activation: RAT LIVER S-9, 3-METHYLCHOLANTHRENE (15%), Method: PREINCUBATION): active; positive
- mutagenic call (Test System: AMES SALMONELLA TYPHIMURIUM, Strain/Indicator: TA7003, Metabolic Activation: NONE, Method: PREINCUBATION): inactive; negative
- mutagenic call (Test System: AMES SALMONELLA TYPHIMURIUM, Strain/Indicator: TA7003, Metabolic Activation: RAT LIVER S-9, 3-METHYLCHOLANTHRENE (15%), Method: PREINCUBATION): inactive; negative
- mutagenic call (Test System: AMES SALMONELLA TYPHIMURIUM, Strain/Indicator: TA7004, Metabolic Activation: RAT LIVER S-9, 3-METHYLCHOLANTHRENE (15%), Method: PREINCUBATION): active; positive
- mutagenic call (Test System: AMES SALMONELLA TYPHIMURIUM, Strain/Indicator: TA7005, Metabolic Activation: RAT LIVER S-9, 3-METHYLCHOLANTHRENE (15%), Method: PREINCUBATION): active; positive
- mutagenic call (Test System: AMES SALMONELLA TYPHIMURIUM, Strain/Indicator: TA7006, Metabolic Activation: NONE, Method: PREINCUBATION): inactive; negative
- mutagenic call (Test System: AMES SALMONELLA TYPHIMURIUM, Strain/Indicator: TA7006, Metabolic Activation: RAT LIVER S-9, 3-METHYLCHOLANTHRENE (15%), Method: PREINCUBATION): active; positive

Structure (SMILES): COc1cc(OC)c2c(=O)c3cc(OC)ccc3oc2c1
- mutagenic call (Test System: AMES SALMONELLA TYPHIMURIUM, Strain/Indicator: TA97, Metabolic Activation: RAT, LIVER, S-9, PHENOBARBITAL AND 5,6-BENZOFLAVONE, Method: PREINCUBATION): active; positive
- mutagenic call (Test System: AMES SALMONELLA TYPHIMURIUM, Strain/Indicator: TA98, Metabolic Activation: RAT, LIVER, S-9, PHENOBARBITAL AND 5,6-BENZOFLAVONE, Method: PREINCUBATION): inactive; negative
- mutagenic call (Test System: AMES SALMONELLA TYPHIMURIUM, Strain/Indicator: TA100, Metabolic Activation: RAT, LIVER, S-9, PHENOBARBITAL AND 5,6-BENZOFLAVONE, Method: PREINCUBATION): active; positive
- mutagenic call (Test System: AMES SALMONELLA TYPHIMURIUM, Strain/Indicator: TA2637, Metabolic Activation: NONE, Method: PREINCUBATION): active; positive
- mutagenic call (Test System: AMES SALMONELLA TYPHIMURIUM, Strain/Indicator: TA2637, Metabolic Activation: RAT, LIVER, S-9, PHENOBARBITAL AND 5,6-BENZOFLAVONE, Method: PREINCUBATION): active; positive
